US8501943B2, “Sodium salt of 5-cyclopropyl-2-{[2-(2,6-difluorophenyl)pyrimidin-5-yl]amino}benzoic acid as DHODH inhibitor” (Almirall, S.A., priority 2009, dated 2013)
Counter-ions that a name gives are not always drawn.

Experiments:
Type in all cases: physicochemical
[1] = Differential scanning calorimetry (DSC) thermogram; settings: heated 30 to 350° C. at 10° C./min
Protocol: The differential scanning calorimetry (DSC) thermograms analyses were obtained using a DSC-821 Mettler-Toledo instrument, serial number 5117423874. Samples were weighed into an aluminium pan, an aluminium lid placed on top of the sample and compressed with a brass rod. Samples were equilibrated at 30° C. and heated at 10° C./min to 350° C. The instrument was calibrated using indium and zinc standards.
FIG. 1 illustrates the DSC thermogram of the sodium salt of 5-cyclopropyl-2-{[2-(2,6-difluorophenyl)pyrimidin-5-yl]amino}benzoic acid.

[2] = Crystallisation tests of salts with pharmaceutically acceptable bases; settings: for Solid form obtained: salt crystallisation tests
Text: Crystallisation tests of salts of 5-cyclopropyl-2-{[2-(2,6-difluorophenyl)pyrimidin-5-yl]amino}benzoic acid with a broad range of pharmaceutically acceptable bases (comprising among others ammonia, L-arginine, choline, lysine, magnesium methoxide, meglumine, potassium methoxide and sodium hydroxide) in a range of different pharmaceutically acceptable solvents (including among others acetone, acetonitrile, ethyl acetate, chloroform, N,N-dimethylformamide, ethanol, isopropanol, nitromethane, dimethyl carbonate, methanol, methyl tert-butyl ether, tetrahydrofurane, diisopropyl ether, cyclohexane, butanol, water, 3-pentanone, toluene, chlorobenzene and isobutyl acetate) have been undertaken.
The salts from L-arginine, choline, magnesium methoxide and potassium methoxide were crystalline but hygroscopic. Additionally, some of said salts have different polymorphic phases.

[3] = Dynamic Vapour Sorption (DVS) profile; settings: 25° C.
Protocol: Dynamic Vapour Sorption (DVS) profiles were obtained using an Igasorp Hiden Isochema instrument (serial number IGA-SA-066). After an initial stabilization period, at least two isotherms (at 25° C.) were obtained for each sample: a moisture sorption from 0 to 95% relative humidity and moisture desorption from 95% relative humidity to dryness. Both isotherms were performed in 10% humidity steps, with a minimum time of 10 minutes and a maximum time of 30 minutes for each step.
FIG. 2 illustrates the DVS pattern of the sodium salt of 5-cyclopropyl-2-{[2-(2,6-difluorophenyl)pyrimidin-5-yl]amino}benzoic acid. Mass increase was measured at 80% (0.7% increase) and 90% (4.2% increase) relative humidity (RH).

Water-solubility test = settings: 25° C. (room temperature), expressed as acid
Protocol: The solubility of Example 1 in water at room temperature was determined together with the solubility of the corresponding free acids.

O=C(O)c1cc(C2CC2)ccc1Nc1cnc(-c2c(F)cccc2F)nc1 [Ex. 1, 5-cyclopropyl-2-{[2-(2,6-difluorophenyl)pyrimidin-5-yl]amino}benzoic acid, sodium salt]
Thermal stability (decomposition) by DSC [1]: does not suffer any decomposition at low-medium temperatures
Hygroscopicity / deliquescence of the salt [2]: neither hygroscopic nor deliquescent
Mass increase (DVS) ([3]; 80% relative humidity): 0.7%
Mass increase (DVS) ([3]; 90% relative humidity): 4.2%
Hygroscopicity according to DVS ([3]; sorption 0 to 95% RH): not hygroscopic
Hysteresis in DVS sorption/desorption ([3]; sorption/desorption isotherms): no hysteresis
Water Solubility @ 25° C. (mg/mL as acid) (Water-solubility test; sodium salt): 1.87 mg/mL

O=C(O)c1cc(C2CC2)ccc1Nc1cnc(-c2c(F)cccc2F)nc1 [Example C1, 5-cyclopropyl-2-{[2-(2,6-difluorophenyl)pyrimidin-5-yl]amino}benzoic acid]
Water Solubility @ 25° C. (mg/mL as acid) (Water-solubility test): 0.03 mg/mL

N=C(N)NCCCC(N)C(=O)O.O=C(O)c1cc(C2CC2)ccc1Nc1cnc(-c2c(F)cccc2F)nc1 [salt from L-arginine]
Hygroscopicity / deliquescence of the salt [2]: hygroscopic
Solid form obtained [2]: crystalline

C[N+](C)(C)CCO.O=C([O-])c1cc(C2CC2)ccc1Nc1cnc(-c2c(F)cccc2F)nc1 [salt from choline]
Hygroscopicity / deliquescence of the salt [2]: hygroscopic
Solid form obtained [2]: crystalline

NCCCCC(N)C(=O)O.O=C(O)c1cc(C2CC2)ccc1Nc1cnc(-c2c(F)cccc2F)nc1 [salt from lysine]
Solid form obtained [2]: either oils or amorphous solids

CNCC(O)C(O)C(O)C(O)CO.O=C(O)c1cc(C2CC2)ccc1Nc1cnc(-c2c(F)cccc2F)nc1 [salt from meglumine]
Solid form obtained [2]: either oils or amorphous solids

O=C([O-])c1cc(C2CC2)ccc1Nc1cnc(-c2c(F)cccc2F)nc1.[K+] [salt from potassium methoxide]
Hygroscopicity / deliquescence of the salt [2]: hygroscopic
Solid form obtained [2]: crystalline
